Source: paper PMC11470957, “Principles of paralog-specific targeted protein degradation engaging the C-degron E3 KLHDC2” (Nature Communications, 2024)
Like-named read-outs stand apart in the source and are kept apart here.

What was measured:
[1] = test system: SKBR3, AU565, RD, SKES1, A673 cells; test: Cell Titer-Glo Luminescent Cell Viability assay; conditions: read-out: IC50, cell viability; five cell lines (SKBR3, AU565, RD, SKES1, A673), after 24 hours
KLHDC2^SBD [2] = target: T1, KLHDC2^SBD (Homo sapiens, UniProt Q9Y2U9); test: Surface plasmon resonance binding to KLHDC2; design: KLHDC2^SBD (15-361) and its Avi-tagged counterpart were expressed in E. coli Rosetta2 cells; 6XHis-MBP (N, cleaved yes); made in house; host or cells: E. coli Rosetta2
T1 sequence (Q9Y2U9 15-361): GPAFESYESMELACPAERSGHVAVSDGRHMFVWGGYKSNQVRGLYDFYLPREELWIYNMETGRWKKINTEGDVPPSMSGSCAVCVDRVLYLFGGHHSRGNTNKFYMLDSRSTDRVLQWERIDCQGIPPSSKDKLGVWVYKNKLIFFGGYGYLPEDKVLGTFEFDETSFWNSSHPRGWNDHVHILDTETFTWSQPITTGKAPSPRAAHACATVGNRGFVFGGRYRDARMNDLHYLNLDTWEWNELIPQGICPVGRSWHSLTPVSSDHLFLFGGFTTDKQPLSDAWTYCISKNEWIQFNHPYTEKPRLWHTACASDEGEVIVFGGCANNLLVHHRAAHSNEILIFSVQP
Protocol: Surface plasmon resonance (SPR) was utilized to determine kinetic parameters and binding affinity of KLHDC2 substrates using a PioneerFE (Sartorius). Experiments were carried out in 20 mM Tris, 200 mM NaCl, 1 mM TCEP, 0.01% Brij35, and 1% DMSO at pH 7.4 as a running buffer with a 100 µL/min flow rate at 20 °C.
The 10xHis-KLHDC2 was immobilized onto a Ni-NTA-coated biosensor chip (HisCap). The chip surface was conditioned using 10 mM HCl, 50 mM NaOH, and 0.1% SDS (50 µL at 100 µL/min) twice, followed by a 100 mM Tris buffer wash (100 µL at 100 µL/min). The surface was then activated using an injection of 0.5 M EDTA (125 µL at 25 µL/min) followed by an injection of 5 mM NiCl2 (125 µL at 25 µL/min). […] Channel 2 was treated identically to channel 3 except for protein loading to be used as a reference channel. […] 100% of the loop was injected with a 300 s dissociation time. All samples were run in triplicate. Data was analyzed using Qdat software and fit to a simple 1-site model.
The SPR experiments were performed to determine the binding affinities (KD) of KLHDC2-SJ46411 and KLHDC2-SJ46418 complexes. All the experiments were performed using a Biacore 1S+ instrument. […] The running buffer consisted of 20 mM Tris pH 7.5, 200 mM NaCl, 1 mM TCEP, 0.01% Brij35, and 4% DMSO. […] In brief, before the immobilization, the sensor chip surface was conditioned by injecting a mixture of (3:1 v/v) 8 M guanidine hydrochloride and 1 M NaOH at a flow rate of 5 μL/min for 2 min for two times. Then, running buffer was injected at a 30 μl/min flow rate for 1 min 3 times. Next, the Biotin CAPture reagent was injected at a flow rate of 2 μl/min for 5 min. Then, biotinylated KLHDC2 was only injected onto the active channel (channel 2).
Sample preparation was carried out precisely the same as SJ46411. All experiments were performed using a multi-cycle analysis method with a 30 μl/min flow rate, 120 S association, and 240 s dissociation time. All data were reference subtracted and corrected for DMSO mismatch. The sensorgrams were analyzed using Biacore insight evaluation software, and KD was determined using the 1:1 steady-state affinity fitting. Finally, all the analyzed data was replotted using GraphPad Prizm 10 software.

KLHDC2^SBD [3] = target: T1, KLHDC2^SBD; test: TR-FRET assay, competition with di-Gly degron peptide binding to KLHDC2^SBD; design: KLHDC2^SBD (15-361) and its Avi-tagged counterpart were expressed in E. coli Rosetta2 cells; 6XHis-MBP (N, cleaved yes); made in house; host or cells: E. coli Rosetta2
Protocol: TR-FRET assays were carried out in black 384-well microtiter plates at a final volume of 20 μL per well. An assay cocktail was prepared as a mixture of 50 nM Biotin-KLHDC2 SBD, 20 nM AlexaFluor488-RIC8B peptide, 2.5 nM Tb-Streptavidin (ThermoFisher) in assay buffer (25 mM HEPES, 100 mM NaCl, 0.1% Triton X-100, 0.5 mM DTT, pH 7.5). The assay cocktail was incubated for thirty-minutes at room temperature and 20 μl distributed to assay plates. Molecules were distributed to the plates at the indicated concentration and the assay mixture was incubated for 1 h at room temperature prior to measuring the TR-FRET signal with a PHERAstar FS plate reader (BMG Labtech) equipped with modules for excitation at 337 nm and emissions at 490 and 520 nm. The integration start was set to 100 µs and the integration time to 200 µs. The number of flashes was fixed at 100. The ratio of 520/490 was used as TR-FRET signal in calculations. Assay endpoints were normalized to 100% (buffer only) and used for curve fitting in Prism.

KLHDC2^SBD [4] = target: T1, KLHDC2^SBD; test: Thermal shift assay (Sypro Orange) probing stabilization of KLHDC2^SBD; type: binding; design: KLHDC2^SBD (15-361) and its Avi-tagged counterpart were expressed in E. coli Rosetta2 cells; 6XHis-MBP (N, cleaved yes); made in house; host or cells: E. coli Rosetta2
Protocol: In an attempt to identify non-peptide ligands that target KLHDC2’s substrate binding domain (SBD), we developed a thermal shift assay probing for stabilization of KLHDC2^SBD upon ligand addition. […] We utilized the thermal shift assay to screen ~ 9,000 molecules from a diverse collection of lead-like molecules (Figs. 1b, S1a, Supplementary Table 1).
Experimental compounds (200 nl each) were dispensed into a 384-well PCR plate using the Labcyte ECHO 655 T. The assay solution, comprising 0.5 μM KLHDC2, 25 mM HEPES, 200 mM NaCl, and 5% Sypro Orange at pH 7.5, was added to achieve a final volume of 20 μl. Negative control wells contained only DMSO, while positive control wells contained a di-Gly substrate peptide derived from SELK. Fluorescence measurements of Sypro Orange in each sample were taken using a Quantstudio 5 or Quantstudio 6, with temperatures ranging from 23 to 75 °C at a rate of 0.05 °C/s. Data analysis involved calculating thermal stability using the Boltzmann and first derivative minima equations in Thermo Scientific Protein Thermal Shift software v1.4. The resulting data were uploaded to CDD Vault for further analysis.
The 8892-compound lead-like one library was screened for its ability to stabilize KLHDC2 using a sypro orange-based thermal stability single-point assay.
Supplementary Ta b l e 1. Small molecule screening data
Category Parameter Description
Assay Ty p e o f assay Thermal Stability Screen
Primary measurement RFU of Sypro Orange
Key reagents Sypro Orange
Assay protocol Experimental compounds (200nl each) were dispensed into […]
a 384-well PCR plate using the Labcyte ECHO 655T. The […]
assay solution, comprising 0.5µM KLHDC2, 25mM HEPES,
200mM NaCl, and 5% Sypro Orange at pH 7.5, was added […]
to achieve a final volume of 20μl. Negative control wells […]
contained only DMSO, while positive control wells […]
contained peptide sub2. Fluorescence measurements of
Sypro Orange in each sample were taken using a
Quantstudio 5 or Quantstudio 6, with temperatures ranging […]
from 23 to 75°C at a rate of 0.05°C/second. Data analysis […]
involved calculating thermal stability using the Boltzmann […]
and first derivative minima equations in Thermo Scientific
Protein Thermal Shift software v1.4. The resulting data […]
were uploaded to CDD Vault for further analysis.
Library Library size 10041
Library composition The library was curated from compounds cherry picked […]
from St. Jude’s collection, representative of 80% of the […]
entire collection based on scaffold diversity (2D Molecular […]
fingerprinting based clustering) and structural properties: […]
lipophilicity (cLogP<3), size (MW 200-300 Da), and no […]
structural alerts (PAINS).
Source The compound collection was curated from multiple […]
vendors and stored on-site.
Screen Format The assay was completed in 26 384 well plates
Concentration(s) tested Compounds were tested at 100µM, and then a 16-point […]
serial dilution was performed on select compounds.
Plate controls DMSO as negative control and peptide sub2 as positive […]
Reagent/ compound dispensing system Multidrop Combi and Labcyte ECHO 655T […]
Detection instrument and software Quant Studio 5 and Quant Studio 6 and Thermo Scientific […]
Protein Thermal Shift software v1.4
Correction factors No correction factors were applied.

[5] = inhibition of KLHDC2^SBD binding to a di-Gly degron peptide, read-out: TR-FRET IC50

Kd (KLHDC2^SBD [2]; read-out: SPR Kd) [µM]	IC50 (KLHDC2^SBD [3]; [5]) [µM]	ΔTm at 50 µM (KLHDC2^SBD [4]; read-out: ΔTm at 50 µM) [°C]	Compound	also measured
			Cc1sc2c(c1C)C(c1ccc(Cl)cc1)=N[C@@H](CC(=O)OC(C)(C)C)c1nnc(C)n1-2 [JQ1, reference compound]	IC50 [1]: ~0.3 µM
19 ± 0.06	46.7 ± 13.5	2.3 ± 0.07	O=C(O)CNC(=O)Cc1csc(-c2cccc(Cl)c2)n1 [SJ10267]	
14.52 ± 0.01	30.2 ± 3.4	3.3 ± 0.2	COc1ccc(-c2nc(CC(=O)NCC(=O)O)cs2)c(Cl)c1 [SJ10272]	
25.47 ± 0.05	40.6 ± 7.6	2.5 ± 0.2	O=C(O)CNC(=O)Cc1csc(-c2ccc(O)cc2Cl)n1 [SJ10280]	
			COCn1cc(-c2nc(CC(=O)NCC(=O)O)cs2)ccc1=O [SJ15396]	Kd (KLHDC2^SBD [2]; SPR Kd): > 2000 µM; IC50 (KLHDC2^SBD [3]): 55.3 ± 25.2 µM; ΔTm at 50 µM (KLHDC2^SBD [4]; 50 µM compound): 0.9 ± 0.2 °C
26.6 ± 0.1	72.8 ± 8.6	2.8 ± 0.3	COCOc1ccc(-c2nc(CC(=O)NCC(=O)O)cs2)cc1F [SJ45737]	
	20.3 ± 0.8		O=C(O)CNC(=O)Cc1csc(-c2cccc3ccncc23)n1 [SJ46412]	Thermal shift ΔTm (KLHDC2^SBD [4]; KLHDC2^SBD, ligand concentration not given): 1.8 ± 0.08 °C
